Data taken from the supplement of paper PMC10307832.

Experiments:
Assay in all cases: relative viability (nuclei count vs DMSO), 5 days (fraction); higher = more cells survive
LOU-NH91 = test system: LOU-NH91
Procedure, shortened: (§1)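 Lung cancer cell lines in 1536-well plates were dosed by pin tool the day after seeding, either with one drug alone or with a fixed anchor-drug dose plus five library-drug doses (not always all listed) in √10 steps. After 5 days, cells were fixed and their nuclei stained in one step (final 0.05% Triton X-100, 1% formaldehyde, 1 ug/ml Hoechst), then counted on 4× images. Relative viability is the nuclei count in treated wells divided by that in vehicle wells. Values are medians of duplicate plates.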

EPLC-272H = test system: EPLC-272H
Procedure, shortened: as §1

UMC-11 = test system: UMC-11
Procedure, shortened: as §1

H3255 = test system: H3255
Procedure, shortened: as §1

NCI-H2405 = test system: NCI-H2405
Procedure, shortened: as §1

NCI-H1975 = test system: NCI-H1975
Procedure, shortened: as §1

NCI-H1355 = test system: NCI-H1355
Procedure, shortened: as §1

201T = test system: 201T
Procedure, shortened: as §1

NCI-H1792 = test system: NCI-H1792
Procedure, shortened: as §1

NCI-H1944 = test system: NCI-H1944
Procedure, shortened: as §1

NCI-H1651 = test system: NCI-H1651
Procedure, shortened: as §1

NCI-H1666 = test system: NCI-H1666
Procedure, shortened: as §1

LCLC-103H = test system: LCLC-103H
Procedure, shortened: as §1

NCI-H1793 = test system: NCI-H1793
Procedure, shortened: as §1

SK-LU-1 = test system: SK-LU-1
Procedure, shortened: as §1

NCI-H2023 = test system: NCI-H2023
Procedure, shortened: as §1

NCI-H441 = test system: NCI-H441
Procedure, shortened: as §1

NCI-H1734 = test system: NCI-H1734
Procedure, shortened: as §1

NCI-H647 = test system: NCI-H647
Procedure, shortened: as §1

RERF-LC-KJ = test system: RERF-LC-KJ
Procedure, shortened: as §1

NCI-H1915 = test system: NCI-H1915
Procedure, shortened: as §1

`COCC1(CO)C(=O)C2CCN1CC2` (stereo unspecified) [PRIMA-1MET] + CS(=O)(=O)N1CCN(Cc2cc3nc(-c4cccc5[nH]ncc45)nc(N4CCOCC4)c3s2)CC1 [Pictilisib] (partner 1 µM) gave a relative viability (LOU-NH91; first compound 0.2 µM) of 0.573, a relative viability (LOU-NH91; first compound 0.6325 µM) of 0.474 and a relative viability (LOU-NH91; first compound 2 µM) of 0.458. For the same molecule, the relative viability (LOU-NH91; first compound 6.325 µM) was 0.467, the relative viability (LOU-NH91; first compound 20 µM) was 0.366 and the relative viability (EPLC-272H; first compound 0.2 µM) was 0.295. It also gave a relative viability (EPLC-272H; first compound 0.6325 µM) of 0.251, a relative viability (EPLC-272H; first compound 2 µM) of 0.234 and a relative viability (EPLC-272H; first compound 6.325 µM) of 0.305. It also gave a relative viability (EPLC-272H; first compound 20 µM) of 0.124, a relative viability (UMC-11; first compound 0.2 µM) of 0.945 and a relative viability (UMC-11; first compound 0.6325 µM) of 0.759. The relative viability (UMC-11; first compound 2 µM) was 0.594, the relative viability (UMC-11; first compound 6.325 µM) was 0.825 and the relative viability (UMC-11; first compound 20 µM) was 0.786. It also gave a relative viability (H3255; first compound 0.2 µM) of 0.493, a relative viability (H3255; first compound 0.6325 µM) of 0.437 and a relative viability (H3255; first compound 2 µM) of 0.466. The relative viability (H3255; first compound 6.325 µM) was 0.469, the relative viability (H3255; first compound 20 µM) was 0.406 and the relative viability (NCI-H2405; first compound 0.2 µM) was 0.278. It also gave a relative viability (NCI-H2405; first compound 0.6325 µM) of 0.497, a relative viability (NCI-H2405; first compound 6.325 µM) of 0.359 and a relative viability (NCI-H2405; first compound 20 µM) of 0.0865. It also gave a relative viability (NCI-H1975; first compound 0.2 µM) of 0.294, a relative viability (NCI-H1975; first compound 0.6325 µM) of 0.291 and a relative viability (NCI-H1975; first compound 2 µM) of 0.27. The relative viability (NCI-H1975; first compound 6.325 µM) was 0.311, the relative viability (NCI-H1975; first compound 20 µM) was 0.248 and the relative viability (NCI-H1355; first compound 0.2 µM) was 0.366. For the same molecule, the relative viability (NCI-H1355; first compound 0.6325 µM) was 0.35, the relative viability (NCI-H1355; first compound 2 µM) was 0.308 and the relative viability (NCI-H1355; first compound 6.325 µM) was 0.36. It also gave a relative viability (NCI-H1355; first compound 20 µM) of 0.541, a relative viability (201T; first compound 0.2 µM) of 0.709 and a relative viability (201T; first compound 0.6325 µM) of 0.593. For the same molecule, the relative viability (201T; first compound 2 µM) was 0.525, the relative viability (201T; first compound 6.325 µM) was 0.741 and the relative viability (201T; first compound 20 µM) was 0.694. It also gave a relative viability (NCI-H1792; first compound 0.2 µM) of 0.227, a relative viability (NCI-H1792; first compound 0.6325 µM) of 0.223 and a relative viability (NCI-H1792; first compound 2 µM) of 0.222. It also gave a relative viability (NCI-H1792; first compound 6.325 µM) of 0.327, a relative viability (NCI-H1792; first compound 20 µM) of 0.271 and a relative viability (NCI-H1944; first compound 0.2 µM) of 0.332. It also gave a relative viability (NCI-H1944; first compound 0.6325 µM) of 0.324, a relative viability (NCI-H1944; first compound 6.325 µM) of 0.328 and a relative viability (NCI-H1944; first compound 20 µM) of 0.363. The relative viability (NCI-H1651; first compound 0.2 µM) was 0.662, the relative viability (NCI-H1651; first compound 0.6325 µM) was 0.583 and the relative viability (NCI-H1651; first compound 2 µM) was 0.505. It also gave a relative viability (NCI-H1651; first compound 6.325 µM) of 0.596, a relative viability (NCI-H1651; first compound 20 µM) of 0.44 and a relative viability (NCI-H1666; first compound 0.2 µM) of 0.494. For the same molecule, the relative viability (NCI-H1666; first compound 0.6325 µM) was 0.335, the relative viability (NCI-H1666; first compound 2 µM) was 0.54 and the relative viability (NCI-H1666; first compound 6.325 µM) was 0.415. It also gave a relative viability (NCI-H1666; first compound 20 µM) of 0.198, a relative viability (LCLC-103H; first compound 0.2 µM) of 0.612 and a relative viability (LCLC-103H; first compound 0.6325 µM) of 0.583. It also gave a relative viability (LCLC-103H; first compound 2 µM) of 0.457, a relative viability (LCLC-103H; first compound 6.325 µM) of 0.583 and a relative viability (LCLC-103H; first compound 20 µM) of 0.478. It also gave a relative viability (NCI-H1793; first compound 0.2 µM) of 0.372, a relative viability (NCI-H1793; first compound 0.6325 µM) of 0.251 and a relative viability (NCI-H1793; first compound 6.325 µM) of 0.343. It also gave a relative viability (NCI-H1793; first compound 20 µM) of 0.325, a relative viability (SK-LU-1; first compound 0.2 µM) of 0.592 and a relative viability (SK-LU-1; first compound 0.6325 µM) of 0.549. For the same molecule, the relative viability (SK-LU-1; first compound 2 µM) was 0.357, the relative viability (SK-LU-1; first compound 6.325 µM) was 0.697 and the relative viability (SK-LU-1; first compound 20 µM) was 0.142. It also gave a relative viability (NCI-H2023; first compound 0.2 µM) of 0.205, a relative viability (NCI-H2023; first compound 0.6325 µM) of 0.196 and a relative viability (NCI-H2023; first compound 2 µM) of 0.222. It also gave a relative viability (NCI-H2023; first compound 6.325 µM) of 0.229, a relative viability (NCI-H2023; first compound 20 µM) of 0.221 and a relative viability (NCI-H441; first compound 0.2 µM) of 0.504. It also gave a relative viability (NCI-H441; first compound 0.6325 µM) of 0.325, a relative viability (NCI-H441; first compound 2 µM) of 0.473 and a relative viability (NCI-H441; first compound 6.325 µM) of 0.411. It also gave a relative viability (NCI-H441; first compound 20 µM) of 0.264, a relative viability (NCI-H1734; first compound 0.2 µM) of 0.446 and a relative viability (NCI-H1734; first compound 0.6325 µM) of 0.465. For the same molecule, the relative viability (NCI-H1734; first compound 2 µM) was 0.408, the relative viability (NCI-H1734; first compound 6.325 µM) was 0.386 and the relative viability (NCI-H1734; first compound 20 µM) was 0.0877. It also gave a relative viability (NCI-H647; first compound 0.2 µM) of 0.523, a relative viability (NCI-H647; first compound 0.6325 µM) of 0.384 and a relative viability (NCI-H647; first compound 6.325 µM) of 0.412. It also gave a relative viability (NCI-H647; first compound 20 µM) of 0.165, a relative viability (RERF-LC-KJ; first compound 0.2 µM) of 0.538 and a relative viability (RERF-LC-KJ; first compound 0.6325 µM) of 0.595. For the same molecule, the relative viability (RERF-LC-KJ; first compound 2 µM) was 0.64, the relative viability (RERF-LC-KJ; first compound 6.325 µM) was 0.623 and the relative viability (RERF-LC-KJ; first compound 20 µM) was 0.624. The relative viability (NCI-H1915; first compound 0.2 µM) was 0.712, the relative viability (NCI-H1915; first compound 0.6325 µM) was 0.785 and the relative viability (NCI-H1915; first compound 2 µM) was 0.625. The relative viability (NCI-H1915; first compound 6.325 µM) was 0.705 and the relative viability (NCI-H1915; first compound 20 µM) was 0.932.
